{"source": "ChEMBL document CHEMBL1821584", "about": "“Docking and 3D-QSAR (quantitative structure activity relationship) studies of flavones, the potent inhibitors of p-glycoprotein targeting the nucleotide binding domain” (Eur J Med Chem, 2011)", "data": [{"biological_target": "ATP-dependent translocase ABCB1 (Homo sapiens, UniProt P08183)", "sequence (P08183 whole entry, the tested form may be a part)": "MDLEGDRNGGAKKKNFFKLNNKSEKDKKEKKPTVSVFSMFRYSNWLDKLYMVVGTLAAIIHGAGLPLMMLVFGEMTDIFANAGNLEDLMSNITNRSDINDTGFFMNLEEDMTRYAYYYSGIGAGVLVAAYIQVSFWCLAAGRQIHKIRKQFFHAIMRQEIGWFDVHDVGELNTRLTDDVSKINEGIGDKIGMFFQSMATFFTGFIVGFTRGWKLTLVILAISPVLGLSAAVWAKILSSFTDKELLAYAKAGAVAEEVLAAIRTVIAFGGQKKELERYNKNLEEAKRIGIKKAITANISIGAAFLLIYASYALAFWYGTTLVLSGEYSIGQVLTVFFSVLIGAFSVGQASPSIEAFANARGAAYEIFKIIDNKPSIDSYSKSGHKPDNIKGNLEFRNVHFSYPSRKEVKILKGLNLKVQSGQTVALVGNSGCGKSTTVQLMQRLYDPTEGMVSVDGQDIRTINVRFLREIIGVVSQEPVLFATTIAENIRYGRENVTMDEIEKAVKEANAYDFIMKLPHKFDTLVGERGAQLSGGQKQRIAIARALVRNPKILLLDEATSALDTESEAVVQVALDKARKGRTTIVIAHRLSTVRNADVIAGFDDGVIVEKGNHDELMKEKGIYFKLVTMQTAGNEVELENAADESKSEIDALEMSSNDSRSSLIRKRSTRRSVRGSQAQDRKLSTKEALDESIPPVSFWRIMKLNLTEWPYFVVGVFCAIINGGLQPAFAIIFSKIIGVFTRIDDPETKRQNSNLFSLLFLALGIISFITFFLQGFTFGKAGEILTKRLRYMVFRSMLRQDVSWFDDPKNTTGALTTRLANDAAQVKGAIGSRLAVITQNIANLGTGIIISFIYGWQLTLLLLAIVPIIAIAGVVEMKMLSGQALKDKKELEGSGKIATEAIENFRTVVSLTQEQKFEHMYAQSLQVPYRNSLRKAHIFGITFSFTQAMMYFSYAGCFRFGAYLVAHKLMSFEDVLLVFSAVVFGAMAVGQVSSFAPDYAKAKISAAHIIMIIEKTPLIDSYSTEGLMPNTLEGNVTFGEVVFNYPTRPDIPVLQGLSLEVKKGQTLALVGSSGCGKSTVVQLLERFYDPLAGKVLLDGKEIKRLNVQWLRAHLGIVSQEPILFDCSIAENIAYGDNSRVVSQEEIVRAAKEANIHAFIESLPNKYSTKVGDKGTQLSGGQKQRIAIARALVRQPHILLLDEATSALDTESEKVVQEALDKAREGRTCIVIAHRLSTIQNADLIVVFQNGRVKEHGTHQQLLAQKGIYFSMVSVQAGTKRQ", "assay": "Binding affinity to ABCB1 nucleotide binding domain 2", "units": {"Kd": "nM"}, "values": [{"smiles": "O=c1cc(-c2ccccc2)oc2cc(OCc3ccccc3)cc(O)c12", "Kd": 67.6}, {"smiles": "COc1c(-c2ccccc2)oc2cc(O)cc(O)c2c1=O", "Kd": 8910}, {"smiles": "CC(C)=Cc1c(O)cc2oc(-c3ccccc3)cc(=O)c2c1O", "Kd": 302}, {"smiles": "O=c1c(-c2ccc(O)cc2)coc2cc(O)cc(O)c12", "note": "[GENISTEIN]", "Kd": 26300}, {"smiles": "O=c1cc(-c2ccccc2)oc2cc(O)ccc12", "note": "[7-HYDROXYFLAVONE]", "Kd": 34700}, {"smiles": "CC(C)Oc1cc2oc(-c3ccccc3)cc(=O)c2c(O)c1C(C)C", "Kd": 282}, {"smiles": "CC(C)=CCC/C(C)=C/c1c(O)cc(O)c2c(=O)cc(-c3ccccc3)oc12", "Kd": 25.1}, {"smiles": "Cc1c(O)cc2oc(-c3ccccc3)cc(=O)c2c1O", "Kd": 3090}, {"smiles": "CC(C)=Cc1c(O)cc(O)c2c(=O)cc(-c3ccccc3)oc12", "Kd": 282}, {"smiles": "O=c1c(O)c(-c2ccccc2)oc2ccccc12", "note": "[FLAVONOL]", "Kd": 10000}, {"smiles": "COc1cc(O)c2c(=O)cc(-c3ccccc3)oc2c1", "note": "[TECHTOCHRYSIN]", "Kd": 6310}, {"smiles": "O=c1c(O)c(-c2ccc(I)cc2)oc2cc(O)cc(O)c12", "Kd": 1100}, {"smiles": "O=c1cc(-c2ccccc2)oc2cc(O)cc(O)c12", "note": "[CHRYSIN]", "Kd": 8910}, {"smiles": "CCCCCCCCc1ccc(-c2oc3cc(O)cc(O)c3c(=O)c2O)cc1", "Kd": 57.5}, {"smiles": "C=CC(C)(C)c1c(O)cc(O)c2c(=O)c(O)c(-c3ccccc3)oc12", "Kd": 447}, {"smiles": "COc1cc2oc(-c3ccccc3)cc(=O)c2c(O)c1C", "Kd": 1290}, {"smiles": "C=CC(C)(C)c1c(OC)cc(O)c2c(=O)c(OC)c(-c3ccccc3)oc12", "Kd": 151}, {"smiles": "O=c1cc(-c2ccc(O)cc2)oc2cc(O)cc(O)c12", "note": "[APIGENIN]", "Kd": 10000}, {"smiles": "CC(C)=Cc1c(O)c(C=C(C)C)c2oc(-c3ccccc3)cc(=O)c2c1O", "Kd": 15.1}, {"smiles": "O=c1cc(-c2ccccc2)oc2c(Cc3ccccc3)c(O)c(Cc3ccccc3)c(O)c12", "Kd": 36.3}, {"smiles": "O=c1cc(-c2ccccc2)oc2ccccc12", "note": "[FLAVONE]", "Kd": 33900}, {"smiles": "O=c1c(O)c(C(c2ccccc2)c2ccccc2)oc2cc(O)cc(O)c12", "Kd": 2000}, {"smiles": "COc1ccc(-c2oc3cc(O)cc(O)c3c(=O)c2O)cc1", "note": "[KAEMPFERIDE]", "Kd": 4470}, {"smiles": "O=c1c(O)c(-c2ccc(Cl)cc2Cl)oc2cc(O)cc(O)c12", "Kd": 3980}, {"smiles": "C=CC(C)(C)c1c(O)cc(O)c2c(=O)cc(-c3ccccc3)oc12", "Kd": 200}, {"smiles": "O=c1cc(-c2ccc(I)cc2)oc2cc(O)cc(O)c12", "Kd": 2190}, {"smiles": "CC(C)Oc1cc(O)c2c(=O)cc(-c3ccccc3)oc2c1", "Kd": 1000}, {"smiles": "O=c1cc(-c2ccccc2)oc2c(Cc3ccccc3)c(O)cc(O)c12", "Kd": 1000}, {"smiles": "CC(C)=Cc1c(O)cc2oc(-c3ccccc3)c(O)c(=O)c2c1O", "Kd": 209}, {"smiles": "CC(C)c1c(O)cc2oc(-c3ccccc3)cc(=O)c2c1O", "Kd": 209}, {"smiles": "CC(C)=CCC/C(C)=C/c1c(O)cc2oc(-c3ccccc3)cc(=O)c2c1O", "Kd": 44.7}, {"smiles": "O=c1c(O)c(-c2ccc(O)cc2)oc2cc(O)cc(O)c12", "note": "[KAEMPFEROL]", "Kd": 6760}, {"smiles": "CC(C)Oc1c(C(C)C)c(O)c2c(=O)cc(-c3ccccc3)oc2c1C(C)C", "Kd": 33.1}, {"smiles": "C=CC(C)(C)c1c(O)cc(O)c2c(=O)c(O)c(-c3ccc(OC)cc3)oc12", "Kd": 200}, {"smiles": "CC(C)=Cc1c(O)cc(O)c2c(=O)c(O)c(-c3ccccc3)oc12", "Kd": 219}, {"smiles": "C=CC(C)(C)c1c(O)cc(O)c2c(=O)cc(-c3ccc(O)cc3)oc12", "Kd": 708}, {"smiles": "O=c1cc(-c2ccc(F)c(F)c2)oc2cc(O)cc(O)c12", "Kd": 6310}, {"smiles": "O=c1c(O)c(-c2ccc(F)cc2)oc2cc(O)cc(O)c12", "Kd": 6760}, {"smiles": "O=c1cc(-c2ccccc2)oc2cc(O)c(Cc3ccccc3)c(O)c12", "Kd": 339}, {"smiles": "O=c1c(O)c(-c2ccccc2)oc2cc(O)cc(O)c12", "note": "[GALANGIN]", "Kd": 5890}]}]}
